Assay results: patent publication US20250092044A1, “Kinase Inhibitors” (Incyte Corporation, priority 2023, published 2025)

Assays:
[1] = tested on: pSTAT5 in SET-2 cells in whole blood; assay: pSTAT5 SET-2 Whole Blood MSD Assay; assay type: cell-based; conditions: Homo sapiens, 2 hour incubation, read-out: SET2 WB IC50
Description: SET-2 cells shipped from ABS, RPMI1640 medium, Fetal Bovine Serum from Gibco, Phospho-STAT5a,b Whole Cell Lysate Kit from Mesoscale, Retronectin (Recombinant Human Fibronectin Fragment) from TaKaRa, 96 well cell culture plate flat bottom from Corning, lysis buffer from Cell Signaling Technology, and sterile PBS from Gibco. Whole Blood from by BioIVT.
SET-2 cells were cultured in RPMI media with 20% FBS at 37° C. humidified incubator supplied with 5% CO2. On the day of the assay, 40 uL per well of diluted retronectin working solution was added to sterile 96-well clear flat bottom tissue culture plates (1:200 dilution of retronectin in sterile PBS) and incubated at 37 C for 1 hour. After 1 hour, the retronectin working solution was aspirated and SET-2 cells were seeded at 100,000/well in RPMI+20% FBS. Cells were incubated overnight at 37° C. and 5% CO2. The next day, the medium was removed and 40 μL of diluted compounds in serum-free RPMI and whole blood was added to the cells for a 2 hour incubation at 37° C. and 5% CO2. The compound starting concentration is 20 μM and 2.5 fold serial diluted down to 0.21 nM. The whole blood and compound mixture was then aspirated off using the BlueCat plate washer and washed 1× with PBS. Cells were lysed by adding 40 μL of 3× complete lysis buffer and shaken at room temperature for 45-60 minutes (complete lysis buffer consists of Cell Signaling Technology lysis buffer diluted to 3× and supplemented with Mesoscale's protease inhibitor, phosphatase I inhibitor, and phosphatase II inhibitor). The pSTAT5 MSD plates were blocked by adding 150 μL of Blocker A solution per well to the MSD plates and incubated at room temperature with shaking at 400 rpm for one hour or longer. After blocking, plates were washed 3× with 300 μL/well of 1× Tris Wash Buffer. After lysis, added 25 μL per well of lysed sample was added to MSD plate and incubated with shaking at 4° C. wrapped in foil overnight. The next day, plates were washed again and 25 μL/well of diluted 1× Detection Antibody Solution, wrapped in foil, and incubated at room temperature with shaking at 400 rpm for 1 hour. Plates were then washed again and lastly, 150 μL/well of 1× Read Buffer T was added to all wells. Plates were analyzed on MSD Discovery within 5 minutes. […] Data analysis was performed in GraphPad Prism using a 4-parameter fit and data was reported as Average±SD.

FLT3 [2] = assay: FLT3 Enzymatic Assay; assay type: biochemical
Procedure, shortened: (§1)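 Room-temperature HTRF kinase assay (665/620 nm ratio) with 0.011 nM FLT3, 1 mM ATP, 500 nM biotinylated TK substrate in HEPES pH 7.0 buffer with MgCl2 and DTT; 0.5% DMSO final. Read after 60 min incubation; IC50 fitted from percent control activity versus log concentration, no-ATP wells as negative control.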

FLT3 [3] = target: FLT3 (Homo sapiens (Human), UniProt P36888); assay: FLT3 Enzymatic Assay; assay type: biochemical; conditions: 1 mM ATP
Procedure, shortened: as §1

[4] = target: catalytic domain (JH1) of human JAK2 (Homo sapiens (Human), UniProt O60674); assay: JAK2 LanthaScreen JH1 Binding Assay; conditions: read-out: JH1 Bind IC50
Procedure, shortened: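 FLAG-tagged biotinylated JH1 (aa 826-1132, baculovirus-expressed), 1.5 nM, with serially diluted compound, 50 nM fluorescent tracer and 0.5 nM streptavidin-Tb in pH 7.5 Tris buffer, 2 h at 25 °C; nonspecific binding with 2 mM ATP. TR-FRET read, IC50 by four-parameter fit.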

[5] = target: pseudo-kinase domain (JH2) of human V617F mutant JAK2 (Homo sapiens (Human), UniProt O60674, F794H/V617F/W659A/W777A); assay: JAK2 LanthaScreen JH2-V617F Binding Assay; conditions: read-out: JH2 V617F Bind IC50
Procedure, shortened: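 Biotinylated His-Avi JAK2 JH2 (aa 536-812, V617F plus W659A/W777A/F794H; 0.26 nM) incubated 1 h at 25 °C with compound, 50 nM fluorescent JH2 tracer and 0.25 nM streptavidin-Tb in Tris pH 7.5 buffer. TR-FRET tracer displacement read; nonspecific binding with 2 mM ATP; IC50 from four-parameter fit.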

catalytic domain (JH1) of human JAK2, sequence (O60674 826-1132): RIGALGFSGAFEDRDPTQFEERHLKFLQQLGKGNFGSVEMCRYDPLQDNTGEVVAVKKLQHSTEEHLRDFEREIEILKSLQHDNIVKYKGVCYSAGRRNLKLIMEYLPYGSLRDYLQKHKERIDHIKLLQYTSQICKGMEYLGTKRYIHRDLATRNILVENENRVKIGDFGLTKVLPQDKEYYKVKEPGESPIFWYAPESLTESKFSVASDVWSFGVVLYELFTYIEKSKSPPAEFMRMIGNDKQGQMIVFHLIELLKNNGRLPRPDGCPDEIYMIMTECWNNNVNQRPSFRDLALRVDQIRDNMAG
FLT3 (Homo sapiens (Human), UniProt P36888), sequence (P36888 27-993, species assumed): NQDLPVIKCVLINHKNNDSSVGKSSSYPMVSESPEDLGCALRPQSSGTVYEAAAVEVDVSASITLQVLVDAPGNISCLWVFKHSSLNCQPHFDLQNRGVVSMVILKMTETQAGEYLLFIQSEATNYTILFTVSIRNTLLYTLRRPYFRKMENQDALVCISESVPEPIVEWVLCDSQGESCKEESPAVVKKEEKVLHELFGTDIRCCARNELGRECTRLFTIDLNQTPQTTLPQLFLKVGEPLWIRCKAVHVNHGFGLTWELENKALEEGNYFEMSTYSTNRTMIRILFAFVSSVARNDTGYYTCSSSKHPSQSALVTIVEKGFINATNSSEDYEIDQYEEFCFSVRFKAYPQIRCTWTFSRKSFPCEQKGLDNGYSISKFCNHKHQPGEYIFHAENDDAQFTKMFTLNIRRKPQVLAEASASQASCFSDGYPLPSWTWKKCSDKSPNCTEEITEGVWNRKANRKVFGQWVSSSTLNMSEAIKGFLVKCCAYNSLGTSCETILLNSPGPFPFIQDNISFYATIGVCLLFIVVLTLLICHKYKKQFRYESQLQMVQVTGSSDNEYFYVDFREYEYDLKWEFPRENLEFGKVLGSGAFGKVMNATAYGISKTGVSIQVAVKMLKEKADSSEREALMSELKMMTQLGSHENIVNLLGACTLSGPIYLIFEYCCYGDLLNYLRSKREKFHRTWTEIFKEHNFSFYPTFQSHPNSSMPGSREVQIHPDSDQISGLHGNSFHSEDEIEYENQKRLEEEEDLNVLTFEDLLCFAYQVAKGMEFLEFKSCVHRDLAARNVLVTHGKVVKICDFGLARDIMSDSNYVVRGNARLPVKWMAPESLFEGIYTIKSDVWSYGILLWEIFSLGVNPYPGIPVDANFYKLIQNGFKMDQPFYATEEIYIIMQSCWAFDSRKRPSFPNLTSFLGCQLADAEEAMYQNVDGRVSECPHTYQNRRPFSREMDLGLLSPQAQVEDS
pseudo-kinase domain (JH2) of human V617F mutant JAK2, sequence (O60674 536-812 V617F/W659A/W777A/F794H): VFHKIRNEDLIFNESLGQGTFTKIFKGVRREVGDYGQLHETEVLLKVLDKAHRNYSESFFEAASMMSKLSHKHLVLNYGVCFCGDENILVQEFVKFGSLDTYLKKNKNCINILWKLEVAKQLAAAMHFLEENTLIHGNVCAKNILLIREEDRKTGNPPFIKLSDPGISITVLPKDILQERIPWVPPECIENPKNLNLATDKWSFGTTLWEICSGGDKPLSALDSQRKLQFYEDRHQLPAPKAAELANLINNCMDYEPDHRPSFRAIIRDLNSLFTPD

| Compound | IC50 [1] | Selectivity FLT3/JH2 V617F (FLT3 [2]) | IC50 (FLT3 [3]) | IC50 [4] | IC50 [5] |
| --- | --- | --- | --- | --- | --- |
| COCCNC(=O)c1ccc(-c2[nH]c3ncc4c(c3c2-c2ccc3c(cnn3C(C)C)c2)n([C@@H]2CC[C@@H](NC(=O)OC)C2)c(=O)n4C)cc1F [Example 14, Methyl ((1R,3R)-3-(7-(3-fluoro-4-((2-methoxyethyl)carbamoyl)phenyl)-8-(1-isopropyl-1H-indazol-5-yl)-3-methyl-2-oxo-3,6-dihydroimidazo[4,5-d]pyrrolo[2,3-b]pyridin-1(2H)-yl)cyclopentyl)carbamate] | 5 to 7.5 µM | ****** (selectivity of >12500-fold) | > 2500 nM | > 1000 nM | ≤ 10 nM |
| COC(=O)N[C@@H]1CC[C@@H](n2c(=O)n(C)c3cnc4[nH]c(-c5ccc(C(=O)NCC(F)(F)F)c(F)c5)c(-c5ccc6c(cnn6C(C)C)c5)c4c32)C1 [Example 11, Methyl ((1R,3R)-3-(7-(3-fluoro-4-((2,2,2-trifluoroethyl)carbamoyl)phenyl)-8-(1-isopropyl-1H-indazol-5-yl)-3-methyl-2-oxo-3,6-dihydroimidazo[4,5-d]pyrrolo[2,3-b]pyridin-1(2H)-yl)cyclopentyl)carbamate] | > 7.5 µM | ****** (selectivity of >12500-fold) | > 2500 nM | > 1000 nM | ≤ 10 nM |
| CCNC(=O)c1ccc(-c2[nH]c3ncc4c(c3c2-c2ccc3c(cnn3C(C)C)c2)n([C@@H]2CC[C@@H](NC(=O)OC)C2)c(=O)n4C)cc1F [Example 6, Methyl ((1R,3R)-3-(7-(4-(ethylcarbamoyl)-3-fluorophenyl)-8-(1-isopropyl-1H-indazol-5-yl)-3-methyl-2-oxo-3,6-dihydroimidazo[4,5-d]pyrrolo[2,3-b]pyridin-1(2H)-yl)cyclopentyl)carbamate] | 2.5 to 5 µM | ***** (selectivity of >5000-fold to ≤12500-fold) | 1250 to 2500 nM | > 1000 nM | ≤ 10 nM |
| [2H]C([2H])([2H])N(Cc1ccc(-c2[nH]c3ncc4c(c3c2-c2ccc3c(c2)COC3(C)C)n([C@@H]2CC[C@@H](NC(=O)OC)C2)c(=O)n4C([2H])([2H])[2H])cc1)C([2H])([2H])[2H] [Example 29, Methyl ((1R,3R)-3-(7-(4-((bis(methyl-d3)amino)methyl)phenyl)-8-(1,1-dimethyl-1,3-dihydroisobenzofuran-5-yl)-3-(methyl-d3)-2-oxo-3,6-dihydroimidazo[4,5-d]pyrrolo[2,3-b]pyridin-1(2H)-yl)cyclopentyl)carbamate] | ≤ 2.5 µM | **** (selectivity of >1750-fold to ≤5000-fold) | 250 to 1250 nM | > 1000 nM | ≤ 10 nM |
| COC(=O)N[C@@H]1CC[C@@H](n2c(=O)n(C)c3cnc4[nH]c(-c5ccc(C(=O)N6CCOCC6)c(F)c5)c(-c5ccc6c(cnn6C(C)C)c5)c4c32)C1 [Example 16, Methyl ((1R,3R)-3-(7-(3-fluoro-4-(morpholine-4-carbonyl)phenyl)-8-(1-isopropyl-1H-indazol-5-yl)-3-methyl-2-oxo-3,6-dihydroimidazo[4,5-d]pyrrolo[2,3-b]pyridin-1(2H)-yl)cyclopentyl)carbamate] | 2.5 to 5 µM | ****** (selectivity of >12500-fold) | 1250 to 2500 nM | > 1000 nM | ≤ 10 nM |
| COC(=O)N[C@@H]1CC[C@@H](n2c(=O)n(C)c3cnc4[nH]c(-c5ccc(C(=O)NC6CC6C(F)(F)F)c(F)c5)c(-c5ccc6c(cnn6C(C)C)c5)c4c32)C1 (stereo partly drawn) [Example 10, Methyl ((1R,3R)-3-(7-(3-fluoro-4-((2-(trifluoromethyl)cyclopropyl)carbamoyl)phenyl)-8-(1-isopropyl-1H-indazol-5-yl)-3-methyl-2-oxo-3,6-dihydroimidazo[4,5-d]pyrrolo[2,3-b]pyridin-1(2H)-yl)cyclopentyl)carbamate] | > 7.5 µM | ****** (selectivity of >12500-fold) | > 2500 nM | > 1000 nM | ≤ 10 nM |
| [2H]C([2H])([2H])N(Cc1ccc(-c2[nH]c3ncc4c(c3c2-c2ccc(OCCOC)cc2)n([C@@H]2CC[C@@H](NC(=O)OC)C2)c(=O)n4C([2H])([2H])[2H])cc1)C([2H])([2H])[2H] [Example 27, Methyl ((1R,3R)-3-(7-(4-((bis(methyl-d3)amino)methyl)phenyl)-8-(4-(2-methoxyethoxy)phenyl)-3-(methyl-d3)-2-oxo-3,6-dihydroimidazo[4,5-d]pyrrolo[2,3-b]pyridin-1(2H)-yl)cyclopentyl)carbamate] | ≤ 2.5 µM | *** (selectivity of >1500-fold to ≤1750-fold) | 250 to 1250 nM | > 1000 nM | ≤ 10 nM |
| COCCN(C)C(=O)c1ccc(-c2[nH]c3ncc4c(c3c2-c2ccc3c(cnn3C(C)C)c2)n([C@@H]2CC[C@@H](NC(=O)OC)C2)c(=O)n4C)cc1F [Example 15, Methyl ((1R,3R)-3-(7-(3-fluoro-4-((2-methoxyethyl)(methyl)carbamoyl)phenyl)-8-(1-isopropyl-1H-indazol-5-yl)-3-methyl-2-oxo-3,6-dihydroimidazo[4,5-d]pyrrolo[2,3-b]pyridin-1(2H)-yl)cyclopentyl)carbamate] | 5 to 7.5 µM | ****** (selectivity of >12500-fold) | 1250 to 2500 nM | > 1000 nM | ≤ 10 nM |
| CNC(=O)c1ccc(-c2[nH]c3ncc4c(c3c2-c2ccc3c(cnn3C(C)C)c2)n([C@@H]2CC[C@@H](NC(=O)OC)C2)c(=O)n4C)cc1 [Example 21, Methyl ((1R,3R)-3-(8-(1-isopropyl-1H-indazol-5-yl)-3-methyl-7-(4-(methylcarbamoyl)phenyl)-2-oxo-3,6-dihydroimidazo[4,5-d]pyrrolo[2,3-b]pyridin-1(2H)-yl)cyclopentyl)carbamate] | > 7.5 µM | ***** (selectivity of >5000-fold to ≤12500-fold) | 250 to 1250 nM | > 1000 nM | ≤ 10 nM |
| [2H]C([2H])([2H])N(Cc1ccc(-c2[nH]c3ncc4c(c3c2-c2ccc3c(c2)CC(C)(C)O3)n([C@@H]2CC[C@@H](NC(=O)OC)C2)c(=O)n4C([2H])([2H])[2H])cc1)C([2H])([2H])[2H] [Example 25, Methyl ((1R,3R)-3-(7-(4-((bis(methyl-d3)amino)methyl)phenyl)-8-(2,2-dimethyl-2,3-dihydrobenzofuran-5-yl)-3-(methyl-d3)-2-oxo-3,6-dihydroimidazo[4,5-d]pyrrolo[2,3-b]pyridin-1(2H)-yl)cyclopentyl)carbamate] | ≤ 2.5 µM | **** (selectivity of >1750-fold to ≤5000-fold) | 250 to 1250 nM | > 1000 nM | ≤ 10 nM |
| COc1nn(C)cc1-c1[nH]c2ncc3c(c2c1-c1ccc2c(cnn2C)c1)n(C1CCOCC1)c(=O)n3C [Comparative Example A, reference compound] | 5 to 7.5 µM | * (selectivity of ≤500-fold) |  | > 1000 nM | ≤ 10 nM |
| COc1nn(C)cc1-c1[nH]c2ncc3c(c2c1-c1ccc2c(cnn2C)c1)n([C@H]1CC[C@@H](CC#N)CC1)c(=O)n3C [E, reference compound] | > 7.5 µM | * (selectivity of ≤500-fold) |  | > 1000 nM | ≤ 10 nM |
| [2H]C([2H])([2H])n1ncc2cc(-c3c(-c4cn(C)nc4OC)[nH]c4ncc5c(c34)n(C3CCOCC3)c(=O)n5C)ccc21 [Comparative Example B, reference compound] | 5 to 7.5 µM | * (selectivity of ≤500-fold) |  | > 1000 nM | ≤ 10 nM |
